Assay results published in publication PMC12818745 (ACS Chemical Neuroscience, 2025).

Legend:
[1] = biological target: T1, eqBChE (equine serum butyrylcholinesterase) (Equus caballus, UniProt P81908); assay: Cholinesterase inhibition assay (modified Ellman's method), eqBChE; assay type: biochemical
T1 construct: eqBChE (equine serum butyrylcholinesterase); from tissue; host or cells: equine serum
From the text: (§1) Compound series A and B were initially screened for their cholinesterase activity against eeAChE (Electrophorus electricus AChE) and eqBChE (equine serum butyrylcholinesterase), using an adaptation of the Ellman’s method. […]. […] Similarly, replacing the terminal triple bond in 7l with a nitrile group reduced its activity, while replacing the O-propargyl group with an N,N-dipropargyl group in 10 enhanced the inhibition of both enzymes, particularly BChE (Table ). The installation of an additional aryl ring in 7o further improved AChE inhibition, slightly increasing selectivity toward this enzyme. […]. […]. […]. The inhibitory activity of the synthesized compounds toward eeAChE and eqBChE was evaluated spectrophotometrically through a 96-well microplate modified Ellman’s method. The solutions of both enzymes were prepared as 0.025 U/mL in phosphate buffer at pH 7, from stock solutions of 5.05 U/mL and 7.50 U/mL, respectively. The stock solutions for the target compounds (0.1 M) were prepared in dimethyl sulfoxide (DMSO). […] The reaction mixture was prepared with 100 μL of the enzyme (eeAChE or eqBChE) and 50 μL of the test compound (or DMSO/water, not exceeding 0.2% of DMSO in the wells; i.e blank samples). After 5 min of the preincubation period at 37 °C, 50 μL of ATChI or BTChI and 50 μL of DTNB were added to each well, thus initiating the enzymatic reaction. The absorbance values were measured at 415 nm, for a total of 7.5 min, at every 2.5 min, using a microplate reader (Synergy multimode reader; BioTek). […]. All experiments were performed in triplicate.

Aβ42 aggregation = biological target: T2, Aβ42 aggregation (Homo sapiens, UniProt P05067); assay: Thioflavin S assay of Aβ42 aggregation in E. coli cells overexpressing Aβ42; assay type: cell-based, Escherichia coli; settings: read-out: Aβ42 inhibition %
T2 construct: expressed in transfected cells; host or cells: E. coli BL21 (DE3), pET vector
Method: (§2) The antiaggregating profiles of both series A and B were evaluated using a fluorescence Thioflavin S (ThS) assay in cellulo, which monitors ThS fluorescence in the presence of β-sheet-rich structures, such as Aβ and tau protein aggregates. This method, based on recombinant Escherichia coli (E. coli) bacteria overexpressing insoluble aggregates, offers a simple and cost-effective approach to model aggregation processes in mammalian systems and has been validated for use in drug discovery studies. , Compounds were tested at a screening concentration of 50 μM for their ability to inhibit Aβ42 aggregation. The results, summarized in Table , reveal distinct antiaggregating profiles between series A and B, which are once again influenced by their structural differences.
42 Amino acid Aβ42 was cloned and overexpressed in E. coli BL21 (DE3) competent cells using the pET vector harboring the DNA sequence of Aβ42. Due to the addition of the initiation codon ATG preceding genes, the resulting overexpressed peptide contained an additional methionine residue at its N-terminus. For the preparation of overnight cultures, a colony of BL21 (DE3) cells carrying the plasmid for expression was inoculated in 10 mL of M9 minimal medium supplemented with 50 μg mL^–1 kanamycin at 37 °C. Subsequently, a 1:500 dilution of the overnight culture was added to fresh M9 minimal medium containing 50 μg mL^–1 kanamycin and 25 μM ThS. The bacterial culture was then incubated at 37 °C with agitation at 250 rpm. Upon reaching an OD600 of 0.6, 980 μL of the culture was transferred into 1.5 mL Eppendorf tubes, each containing 10 μL of the compound to be tested dissolved in DMSO and 10 μL of 100 mM isopropyl 1-thio-β-D-galactopyranoside (IPTG) or, alternatively, 10 μL of water for the noninduced controls. The final compound concentration was adjusted to […]. The samples were allowed to grow overnight at 37 °C with agitation at 1400 rpm using a Thermomixer (Eppendorf). Negative controls, representing maximum amyloid presence, utilized free DMSO.
(§3) ThS (T1892) and all other chemical reagents were purchased from Sigma (St. Louis, MO). Stock solutions of ThS (250 μM) were prepared using doubly distilled water purified via a Milli-Q system (Millipore). For the fluorescence assay, ThS spectra were recorded utilizing an AmincoBowman series 2 luminescence spectrophotometer (Aminco-Bowman AB2, SLM Aminco, Rochester, NY) within the range of 460 to 600 nm at a temperature of 25 °C. The excitation wavelength employed was 445 nm, with slit widths set at 4 nm. The emission at 485 nm, corresponding to the ThS peak observed in the presence of amyloids, was recorded. To standardize ThS fluorescence relative to bacterial concentration in both in vitro and cell-based assays, the OD600 was determined using a Shimadzu UV-2401 PC UV–vis spectrophotometer. Fluorescence normalization was executed by setting the ThS fluorescence of bacterial cells expressing the peptide or protein in the absence of the drug as 100%, while that of bacterial cells not expressing the peptide or protein was established as 0%.

[2] = biological target: eeAChE (Electrophorus electricus AChE) (Electrophorus electricus, UniProt O42275); assay: Cholinesterase inhibition assay (modified Ellman's method), eeAChE; assay type: biochemical; settings: for SI eeAChE: ratio eqBChE IC50/eeAChE IC50
From the text: as §1

Tau protein aggregation = biological target: T3, Tau protein aggregation (Homo sapiens, UniProt P10636); assay: Thioflavin S assay of tau protein aggregation in E. coli cells overexpressing tau; assay type: cell-based, Escherichia coli; settings: read-out: Tau inhibition %
T3 construct: For the cloning and overexpression of full-length tau protein; expressed in transfected cells; host or cells: E. coli BL21 (DE3) carrying pTARA and pRKT42
Method: as §2
This strategic extension aimed to validate the chromeno[3,4-b]-xanthone scaffold for related aggregation targets, considering the structural and pathological similarities between Aβ and tau aggregation processes. […]. […] Nevertheless, it is important to interpret the results cautiously, as the inability of certain compounds to cross bacterial membranes, may have underestimated their true inhibitory activity in the assay.
For the cloning and overexpression of full-length tau protein, E. coli BL21 (DE3) competent cells were transformed first with the pTARA vector containing the RNA polymerase gene of phage T7 (T7RP), controlled by the PBAD promoter. Subsequently, E. coli BL21(DE3) competent cells containing pTARA were transformed with the pRKT42 vector encoding four repeats of tau protein in two inserts. Similar to the procedure for Aβ42, overnight cultures were prepared by inoculating colonies of BL21 (DE3) cells bearing the plasmids in M9 medium supplemented with 0.5% glucose, 50 μg mL^–1 ampicillin, and 12.5 μg mL^–1 chloramphenicol at 37 °C. Upon induction, a 1:500 dilution of the overnight culture was added to fresh M9 minimal medium containing 0.5% glucose, 50 μg mL^–1 ampicillin, 12.5 μg mL^–1 chloramphenicol, and 25 μM ThS. The subsequent steps mirrored those for the Aβ assay, including the addition of the compound to be tested dissolved in DMSO and 10 μL of 25% arabinose or, alternatively, 10 μL of water for the noninduced controls, with a final compound concentration of […]. Negative controls for tau overexpression utilized free DMSO.
as §3

in vitro = settings: for Prediction (penetration into the CNS): class from PAMPA-BBB P e; for Papp at 2.5 h: PAMPA, pH 7.4
Method: To assess BBB permeability, a parallel artificial membrane permeability assay (PAMPA)-BBB was performed, which predicts passive BBB permeability using a brain lipid porcine membrane.
The prediction of the brain penetration was evaluated using a PAMPA-BBB. […] Next, 100 μL of these stock solutions were added to a solution of 1400 μL of EtOH and 3500 μL of PBS at pH 7.4, to reach 30% of EtOH concentration in the experiment. These solutions were filtered, using Filter PDVF membrane units (diameter 30 mm, pore size 0.45 μm, from Symta). After this, the acceptor 96-well microplate (Multiscreen, catalogue no. MAMCS9610, from Millipore) was filled with 180 μL of PBS/EtOH (70/30). […] After 5 min, 180 μL of each compound solution was added. 1–2 mg of each selected compound was dissolved in 1500 μL of EtOH and 3500 μL of PBS at pH 7.4, filtered, and then added to the donor 96-well plate to determine their ability to cross the brain barrier. After this, the donor plate was carefully put on the acceptor plate to form a “sandwich” and incubated for 2.5 h at 25 °C. During this period, the compounds diffused from the donor plate through the brain lipid membrane into the acceptor plate. Afterward, the donor plate was removed. A 96-well plate UV reader (Thermoscientific, Multiskan spectrum) was used to determine the concentration of compounds and commercial drugs in the acceptor and donor wells. Every sample was analyzed at three to five wavelengths, in three wells, and in two independent runs. […] Ten quality control compounds (previously mentioned) of known BBB permeability were included in each experiment to validate the analysis set.

T1 sequence (P81908 whole entry): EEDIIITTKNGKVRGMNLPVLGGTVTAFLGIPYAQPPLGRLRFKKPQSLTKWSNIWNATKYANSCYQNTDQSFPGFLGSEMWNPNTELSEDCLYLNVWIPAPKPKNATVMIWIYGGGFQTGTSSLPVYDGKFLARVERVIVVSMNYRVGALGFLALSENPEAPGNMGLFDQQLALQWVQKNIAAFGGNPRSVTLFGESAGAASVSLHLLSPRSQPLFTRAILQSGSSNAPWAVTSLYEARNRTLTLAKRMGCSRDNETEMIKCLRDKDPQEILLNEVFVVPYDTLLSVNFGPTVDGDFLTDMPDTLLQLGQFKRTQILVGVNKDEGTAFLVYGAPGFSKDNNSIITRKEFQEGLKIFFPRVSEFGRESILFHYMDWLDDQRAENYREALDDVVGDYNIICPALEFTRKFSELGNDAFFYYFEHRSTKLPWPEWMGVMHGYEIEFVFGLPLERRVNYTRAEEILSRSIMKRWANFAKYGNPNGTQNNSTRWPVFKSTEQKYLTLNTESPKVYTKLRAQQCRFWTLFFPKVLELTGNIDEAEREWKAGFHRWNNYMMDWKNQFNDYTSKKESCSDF
Sequence of eeAChE (Electrophorus electricus AChE) (O42275 24-633): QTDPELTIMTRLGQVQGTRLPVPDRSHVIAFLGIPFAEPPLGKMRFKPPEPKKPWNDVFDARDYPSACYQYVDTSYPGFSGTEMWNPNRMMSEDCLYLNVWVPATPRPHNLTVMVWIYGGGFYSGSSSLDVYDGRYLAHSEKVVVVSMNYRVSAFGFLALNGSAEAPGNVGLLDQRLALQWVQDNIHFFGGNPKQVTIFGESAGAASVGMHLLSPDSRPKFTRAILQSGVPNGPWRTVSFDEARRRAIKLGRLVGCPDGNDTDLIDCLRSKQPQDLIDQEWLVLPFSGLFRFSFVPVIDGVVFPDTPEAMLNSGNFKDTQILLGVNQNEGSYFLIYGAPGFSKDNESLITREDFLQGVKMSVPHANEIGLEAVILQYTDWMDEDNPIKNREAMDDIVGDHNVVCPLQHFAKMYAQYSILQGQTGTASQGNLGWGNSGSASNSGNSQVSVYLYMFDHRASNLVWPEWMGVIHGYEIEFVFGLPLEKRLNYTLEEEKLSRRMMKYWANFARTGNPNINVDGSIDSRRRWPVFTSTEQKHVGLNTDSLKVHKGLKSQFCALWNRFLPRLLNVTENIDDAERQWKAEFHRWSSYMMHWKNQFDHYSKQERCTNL
T3 sequence (P10636 other isoform, or with tags, fused parts or gaps): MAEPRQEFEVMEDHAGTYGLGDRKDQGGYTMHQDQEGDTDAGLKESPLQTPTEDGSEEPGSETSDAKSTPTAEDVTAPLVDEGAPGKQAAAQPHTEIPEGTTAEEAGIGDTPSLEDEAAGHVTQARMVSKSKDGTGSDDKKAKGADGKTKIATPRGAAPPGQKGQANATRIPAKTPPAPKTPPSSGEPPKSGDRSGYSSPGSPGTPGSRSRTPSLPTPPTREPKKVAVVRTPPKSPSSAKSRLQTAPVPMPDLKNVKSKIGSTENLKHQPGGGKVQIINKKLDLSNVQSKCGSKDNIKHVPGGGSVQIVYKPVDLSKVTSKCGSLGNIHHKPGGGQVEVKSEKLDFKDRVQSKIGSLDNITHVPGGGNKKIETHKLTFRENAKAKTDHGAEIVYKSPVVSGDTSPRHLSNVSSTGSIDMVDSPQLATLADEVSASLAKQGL
T2 sequence (P05067 672-713): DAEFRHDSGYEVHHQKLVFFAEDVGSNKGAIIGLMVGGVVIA

SMILES | IC50 [1] [µM] | inhibition at 50 µM (Aβ42 aggregation) [%] | IC50 [2] [µM] | SI eeAChE [2] | inhibition at 50 µM (Tau protein aggregation) [%] | Prediction (penetration into the CNS) (in vitro) | Papp at 2.5 h (in vitro; pig) [×10⁻⁶ cm/s] | Papp at 2.5 h (in vitro) [×10⁻⁶ cm/s]
COc1ccc2c(=O)c3cc4c(cc3oc2c1OC)-c1ccccc1OC4 [Compound 11d, 11,12-Dimethoxy-6H,8H-chromeno[3,4-b]xanthen-8-one] | 7.1 ± 0.1 | 40 ± 6.4 |  |  |  |  |  | 
COc1cc(OC)c2c(=O)c3cc4c(cc3oc2c1)-c1ccccc1OC4 [Compound 11e, 9,11-Dimethoxy-6H,8H-chromeno[3,4-b]xanthen-8-one] | 9.4 ± 0.2 | 36 ± 4.4 |  |  |  |  |  | 
COc1ccc2c(c1)-c1cc3oc4ccccc4c(=O)c3cc1CO2 [Compound 11f, 2-Methoxy-6H,8H-chromeno[3,4-b]xanthen-8-one] | 6.1 ± 0.5 | 36 ± 7.8 | 6.9 ± 1.5 | 0.88 |  |  |  | 
O=c1c2ccccc2oc2cc3c(cc12)COc1ccc(OC(F)(F)F)cc1-3 [Compound 11h, 2-(Trifluoromethoxy)-6H,8H-chromeno[3,4-b]xanthen-8-one] | 6.2 ± 0.7 | 41 ± 6.4 | 4 ± 1.2 | 1.55 |  |  |  | 
O=c1c2ccccc2oc2cc3c(cc12)COc1ccc(F)cc1-3 [Compound 11i, 2-Fluoro-6H,8H-chromeno[3,4-b]xanthen-8-one] |  | 47 ± 8.4 |  |  | 52 ± 6.3 |  |  | 
O=c1c2ccccc2oc2cc3c(cc12)COc1c(Br)cc(Cl)cc1-3 [Compound 11k, 4-Bromo-2-chloro-6H,8H-chromeno[3,4-b]xanthen-8-one] | 6.2 ± 1 | 46 ± 3.7 | 4.2 ± 0.9 | 1.48 | 52 ± 7.2 | CNS± (Uncertain BBB permeation (CNS±) 3.93 > P e > 1.82) | 2.3 ± 1.11 | 
COc1ccc2c(c1)-c1cc3oc4cc(OC)ccc4c(=O)c3cc1CO2 [Compound 11l, 2,11-Dimethoxy-6H,8H-chromeno[3,4-b]xanthen-8-one] | 9 ± 0.5 | 40 ± 5.1 | 4.8 ± 0.5 | 1.88 |  |  |  | 
COc1ccc2c(c1)-c1cc3oc4cccc(OC)c4c(=O)c3cc1CO2 [Compound 11m, 2,9-Dimethoxy-6H,8H-chromeno[3,4-b]xanthen-8-one] | 7.3 ± 0.4 | 30 ± 6.6 |  |  |  |  |  | 
COc1ccc2c(=O)c3cc4c(cc3oc2c1)-c1cc(F)ccc1OC4 [Compound 11q, 2-Fluoro-11-methoxy-6H,8H-chromeno[3,4-b]xanthen-8-one] |  | 50 ± 6.7 | 4.3 ± 1.5 |  | 55 ± 5.9 | CNS+ (High BBB permeation predicted (CNS+) P e > 3.93) | 6.04 ± 1.99 | 
COc1ccc2c(=O)c3cc4c(cc3oc2c1)-c1cc(Cl)cc(Br)c1OC4 [Compound 11s, 4-Bromo-2-chloro-11-methoxy-6H,8H-chromeno[3,4-b]xanthen-8-one] | 7 ± 0.4 | 46 ± 6.3 | 1.7 ± 1.2 | 4.12 | 58 ± 7.1 | CNS+ (High BBB permeation predicted (CNS+) P e > 3.93) | 8.7 ± 0.61 | 
COc1ccc2c(=O)c3cc4c(cc3oc2c1)-c1c(ccc2ccccc12)OC4 [Compound 12b] |  | 54 ± 6.2 |  |  | 57 ± 7 |  |  | 
CNCCCN1c2ccccc2CCc2ccccc21 [Desipramine, reference compound] |  |  |  |  |  |  | 15.6 ± 1.78 | 
CCn1cc(C(=O)O)c(=O)c2cc(F)c(N3CCNCC3)nc21 [Enoxacin, reference compound] |  |  |  |  |  |  | 0.15 ± 0.15 | 
CN1C(C(=O)Nc2ccccn2)=C(O)c2ccccc2S1(=O)=O [Piroxicam, reference compound] |  |  |  |  |  |  | 0.19 ± 0.02 | 
CN(C)CCCN1c2ccccc2Sc2ccccc21 [Promazine, reference compound] |  |  |  |  |  |  |  | 15.4 ± 0.91
